Each molecule was assayed against T1, human CaMKIIδ (Homo sapiens, UniProt Q13557) (assay: Evaluation of in vitro CaMKII inhibitory activity (binding assay, TR-FRET)). Details: human CaMKIIδ, TR-FRET binding assay; class symbols A/B/C; read-out: Act (CaMKII inhibitory activity, binding assay).
T1 construct: Full-length, glutathione-S-transferase(GST)-tagged, human CaMKIIδ was purchased from Carna Biosciences; purchased Carna Biosciences (CaMKIIδ); Wako Pure Chemical Industries (calmodulin) 02-111
Experimental: Evaluation of In Vitro CaMKII Inhibitory Activity (Binding Assay)
In vitro CaMKIIδ inhibitory activity was evaluated by a binding assay.
Full-length bovine calmodulin was purchased from Wako Pure Chemical Industries (Osaka, Japan). Terbium-labeled anti-GST anti body (Tb-anti-GST Ab) was purchased from Life Technologies (Carlsbad, CA, USA). Fluorescent probe ligand, 5,5-difluoro-7,9-dimethyl-3-(3-oxo-3-((3-((4-(3-(piperazin-1-yl)phenyl)pyrimidin-2-yl)amino)phenyl)amino) propyl)-5H-dipyrrolo[1,2-c:2′,1′-f]
Time-resolved fluorescence resonance energy transfer (TR-FRET) assay
The fluorescent probe ligand, 5,5-difluoro-7,9-dimethyl-3-(3-oxo-3-((3-((4-(3-(piperazin-1-yl)phenyl)pyrimidin-2-yl)amino)phenyl)amino) propyl)-5H-dipyrrolo[1,2-c:2′,1′-f] […] After shaded incubation of the protein-probe mixture on ice for 30 min, the premix was dispensed in the assay plate including test inhibitors with 4 fold dilution series of eight concentrations. After 1 hr incubation at room temperature, TR-FRET signals were measured in duplicate using an EnVision microplate reader (Perkin Elmer, Waltham, MA, USA).
The half maximal inhibitory concentration (IC50) of test compounds was calculated by fitting the data with the logistic equation using XLfit (IDBS, Guildford, UK).

SMILES | IC50 [nM]
C[C@@H](Cn1cnnn1)Oc1cccc(-c2ccc3ncn(-c4cc(F)cc(O)c4C#N)c3n2)n1 [Example 472, 4-fluoro-2-hydroxy-6-[5-(6-{[(2S)-1-(1H-tetrazol-1-yl)propan-2-yl]oxy}pyridin-2-yl)-3H-imidazo[4,5-b]pyridin-3-yl]benzonitrile] | < 10
[2H]C([2H])([2H])Oc1ccnc(-c2cnc3ccc(-c4ccc(F)c(O[C@@H](C)Cn5cnnn5)c4)nn23)c1C#N [Example 473, 2-[6-(4-fluoro-3-{[(2S)-1-(1H-tetrazol-1-yl)propan-2-yl]oxy}phenyl)imidazo[1,2-b]pyridazin-3-yl]-4-(methoxy-d3)pyridine-3-carbonitrile] | < 10
[2H]C([2H])([2H])Oc1cc(F)cc(-n2cnc3ccc(-c4cccc(O[C@@H](C)Cn5cnnn5)n4)nc32)c1C#N [Example 474, 4-fluoro-2-(methoxy-d3)-6-[5-(6-{[(2S)-1-(1H-tetrazol-1-yl)propan-2-yl]oxy}pyridin-2-yl)-3H-imidazo[4,5-b]pyridin-3-yl]benzonitrile] | < 10
COc1ccnc(-c2cnc3ccc(-c4ccc(F)c(O[C@@H](CF)Cn5cnnn5)c4)nn23)c1C#N [Example 475, 2-[6-(4-fluoro-3-{[(2R)-1-fluoro-3-(1H-tetrazol-1-yl)propan-2-yl]oxy}phenyl)imidazo[1,2-b]pyridazin-3-yl]-4-methoxypyridine-3-carbonitrile] | < 10
COc1ccnc(-c2cnc3ccc(-c4ccc(F)c(O[C@@H](CO)Cn5cnnn5)c4)nn23)c1C#N [Example 477, 2-[6-(4-fluoro-3-{[(2R)-1-hydroxy-3-(1H-tetrazol-1-yl)propan-2-yl]oxy}phenyl)imidazo[1,2-b]pyridazin-3-yl]-4-methoxypyridine-3-carbonitrile] | < 10

Same assay, conditions: in vitro CaMKII inhibitory activity (binding assay), human CaMKIIδ; read-out: Act

SMILES | IC50 [nM]
C[C@@H](Cn1cnnn1)Oc1cc(-c2ccc3ncn(-c4cc(F)ccc4C#N)c3n2)cnn1 [Example 347, 4-fluoro-2-[5-(6-{[(2S)-1-(1H-tetrazol-1-yl)propan-2-yl]oxy}pyridazin-4-yl)-3H-imidazo[4,5-b]pyridin-3-yl]benzonitrile] | 10 to 100
C[C@@H](Cn1cnnn1)Oc1cccc(-c2ccc3ncc(-c4nccc(OCC(F)F)c4C#N)n3n2)c1 [Example 354, 4-(2,2-difluoroethoxy)-2-[6-(3-{[(2S)-1-(1H-tetrazol-1-yl)propan-2-yl]oxy}phenyl)imidazo[1,2-b]pyridazin-3-yl]pyridine-3-carbonitrile] | < 10
CNc1ccnc(-c2cnc3ccc(-c4cccc(O[C@@H](C)Cn5cnnn5)c4)nn23)c1C#N [Example 358, 4-(methylamino)-2-[6-(3-{[(2S)-1-(1H-tetrazol-1-yl)propan-2-yl]oxy}phenyl)imidazo[1,2-b]pyridazin-3-yl]pyridine-3-carbonitrile] | < 10
C[C@@H](Cn1cnnn1)Oc1cccc(-c2ccn3nc(F)c(-c4cc(F)ccc4C#N)c3n2)c1 [Example 379, 4-fluoro-2-[2-fluoro-5-(3-{[(2S)-1-(1H-tetrazol-1-yl)propan-2-yl]oxy}phenyl)pyrazolo[1,5-a]pyrimidin-3-yl]benzonitrile] | < 10
C[C@@H](Cn1cnnn1)Oc1cccc(-c2ccc3ncn(-c4cc(C(F)F)ccc4C#N)c3n2)c1 [Example 383, 4-(difluoromethyl)-2-[5-(3-{[(2S)-1-(1H-tetrazol-1-yl)propan-2-yl]oxy}phenyl)-3H-imidazo[4,5-b]pyridin-3-yl]benzonitrile] | < 10
COc1cc(F)cc(-c2cnc3ccc(-c4cncc(O[C@@H](C)Cn5cnnn5)n4)nn23)c1C#N [Example 392, 4-fluoro-2-methoxy-6-[6-(6-{[(2S)-1-(1H-tetrazol-1-yl)propan-2-yl]oxy}pyrazin-2-yl)imidazo[1,2-b]pyridazin-3-yl]benzonitrile] | < 10
COc1cc(F)cc(-n2cnc3ccc(-c4cccc(O[C@@H](C)Cn5cnnn5)n4)nc32)c1C#N [Example 393, 4-fluoro-2-methoxy-6-[5-(6-{[(2S)-1-(1H-tetrazol-1-yl)propan-2-yl]oxy}pyridin-2-yl)-3H-imidazo[4,5-b]pyridin-3-yl]benzonitrile] | < 10
COc1nccc(-c2cnc3ccc(-c4ccc(F)c(O[C@@H](C)Cn5cnnn5)c4)nn23)c1C#N [Example 399, 4-[6-(4-fluoro-3-{[(2S)-1-(1H-tetrazol-1-yl)propan-2-yl]oxy}phenyl)imidazo[1,2-b]pyridazin-3-yl]-2-methoxypyridine-3-carbonitrile] | < 10
C[C@@H](Cn1cnnn1)Oc1cccc(-c2ccc3ncc(-c4cc(F)cc(OC(F)F)c4C#N)n3n2)n1 [Example 409, 2-(difluoromethoxy)-4-fluoro-6-[6-(6-{[(2S)-1-(1H-tetrazol-1-yl)propan-2-yl]oxy}pyridin-2-yl)imidazo[1,2-b]pyridazin-3-yl]benzonitrile] | < 10
COc1cc(F)cc(-c2cnc3ccc(-c4cccc(O[C@@H](C)Cn5cnnn5)n4)nn23)c1C#N [Example 410, 4-fluoro-2-methoxy-6-[6-(6-{[(2S)-1-(1H-tetrazol-1-yl)propan-2-yl]oxy}pyridin-2-yl)imidazo[1,2-b]pyridazin-3-yl]benzonitrile] | < 10
C[C@@H](Cn1cnnn1)Oc1cccc(-c2ccc3ncc(-c4cccc(OC(F)F)c4C#N)n3n2)c1 [Example 412, 2-(difluoromethoxy)-6-[6-(3-{[(2S)-1-(1H-tetrazol-1-yl)propan-2-yl]oxy}phenyl)imidazo[1,2-b]pyridazin-3-yl]benzonitrile] | < 10
C[C@@H](Cn1cnnn1)Oc1cccc(-c2ccc3ncc(-c4cccc(C(F)F)c4C#N)n3n2)c1 [Example 413, 2-(difluoromethyl)-6-[6-(3-{[(2S)-1-(1H-tetrazol-1-yl)propan-2-yl]oxy}phenyl)imidazo[1,2-b]pyridazin-3-yl]benzonitrile] | < 10
C[C@@H](Cn1cnnn1)Oc1cccc(-c2ccn3ncc(-c4cc(F)ccc4C#N)c3n2)n1 [Example 416, 4-fluoro-2-[5-(6-{[(2S)-1-(1H-tetrazol-1-yl)propan-2-yl]oxy}pyridin-2-yl)pyrazolo[1,5-a]pyrimidin-3-yl]benzonitrile] | < 10
C[C@@H](Cn1cnnn1)Oc1cccc(-c2ccc3ncc(-c4cc(F)cc(C(F)F)c4C#N)n3n2)n1 [Example 417, 2-(difluoromethyl)-4-fluoro-6-[6-(6-{[(2S)-1-(1H-tetrazol-1-yl)propan-2-yl]oxy}pyridin-2-yl)imidazo[1,2-b]pyridazin-3-yl]benzonitrile] | < 10
CC(=O)c1cccc(-c2cnc3ccc(-c4cccc(O[C@@H](C)Cn5cnnn5)c4)nn23)c1C#N [Example 426, 2-acetyl-6-[6-(3-{[(2S)-1-(1H-tetrazol-1-yl)propan-2-yl]oxy}phenyl)imidazo[1,2-b]pyridazin-3-yl]benzonitrile] | < 10
C[C@@H](Cn1cnnn1)Oc1cccc(-c2ccc3ncc(-c4cccc(C(C)(F)F)c4C#N)n3n2)c1 [Example 427, 2-(1,1-difluoroethyl)-6-[6-(3-{[(2S)-1-(1H-tetrazol-1-yl)propan-2-yl]oxy}phenyl)imidazo[1,2-b]pyridazin-3-yl]benzonitrile] | < 10
C[C@@H](Cn1cnnn1)Oc1cc(-c2ccc3ncc(-c4nccc(OCF)c4C#N)n3n2)ccc1F [Example 435, 2-[6-(4-fluoro-3-{[(2S)-1-(1H-tetrazol-1-yl)propan-2-yl]oxy}phenyl)imidazo[1,2-b]pyridazin-3-yl]-4-(fluoromethoxy)pyridine-3-carbonitrile] | < 10
COc1cc(F)cc(-c2cnc3ccc(-c4ccc(F)c(O[C@@H](C)Cn5cnnn5)n4)nn23)c1C#N [Example 447, 4-fluoro-2-[6-(5-fluoro-6-{[(2S)-1-(1H-tetrazol-1-yl)propan-2-yl]oxy}pyridin-2-yl)imidazo[1,2-b]pyridazin-3-yl]-6-methoxybenzonitrile] | < 10
COc1cc(Cl)cc(-n2cnc3ccc(-c4cncc(O[C@@H](C)Cn5cnnn5)n4)nc32)c1C#N [Example 448, 4-chloro-2-methoxy-6-[5-(6-{[(2S)-1-(1H-tetrazol-1-yl)propan-2-yl]oxy}pyrazin-2-yl)-3H-imidazo[4,5-b]pyridin-3-yl]benzonitrile] | < 10
COc1cc(F)cc(-c2cnc3ccc(-c4cccc(O[C@@H](C)Cn5cncn5)n4)nn23)c1C#N [Example 452, 4-fluoro-2-methoxy-6-[6-(6-{[(2S)-1-(1H-1,2,4-triazol-1-yl)propan-2-yl]oxy}pyridin-2-yl)imidazo[1,2-b]pyridazin-3-yl]benzonitrile] | < 10
C[C@@H](Cn1cnnn1)Oc1cccc(-c2ccc3ncc(-c4nccc(OCF)c4C#N)n3n2)c1 [Example 466, 4-(fluoromethoxy)-2-[6-(3-{[(2S)-1-(1H-tetrazol-1-yl)propan-2-yl]oxy}phenyl)imidazo[1,2-b]pyridazin-3-yl]pyridine-3-carbonitrile] | < 10
C[C@@H](Cn1cnnn1)Oc1cccc(-c2ccc3ncc(-c4nc(F)ccc4C#N)n3n2)c1 [Example 467, 6-fluoro-2-[6-(3-{[(2S)-1-(1H-tetrazol-1-yl)propan-2-yl]oxy}phenyl)imidazo[1,2-b]pyridazin-3-yl]pyridine-3-carbonitrile] | < 10

From US12528816B2, “Substituted imidazo [1,2-b] pyridazines and [1, 2, 4] triazolo [ 4,3-b] pyridazines as camkii inhibitors” (Cardurion Pharmaceuticals, INC., priority 2020, dated 2026)
